Data as given in ChEMBL document CHEMBL1153355, “Synthesis and cytotoxic activities of novel phenacylimidazolium bromides” (Bioorg Med Chem Lett, 2009).

How the values were obtained:
Format in all cases: functional, cell-based
[1] = Cytotoxicity against human GLC15 cells by MTT assay
[2] = tested on: SK-OV-3; test: Cytotoxicity against human SKOV3 cells by MTT assay
[3] = tested on: HEp-2; test: Cytotoxicity against human Hep2 cells by MTT assay
[4] = tested on: A-431; test: Cytotoxicity against human A431 cells by MTT assay
[5] = tested on: K562; test: Cytotoxicity against human K562 cells by MTT assay
[6] = tested on: HL-60; test: Cytotoxicity against human HL60 cells by MTT assay
[7] = tested on: MKN-28; test: Cytotoxicity against human MKN28 cells by MTT assay
[8] = tested on: SMMC-7721; test: Cytotoxicity against human SMMC7721 cells by MTT assay

Row | SMILES | IC50 [1] | IC50 [2] | IC50 [3] | IC50 [4] | IC50 [5] | IC50 [6] | IC50 [7] | IC50 [8]
1 | CC(C)c1cccc(C(C)C)c1-n1cc[n+](CC(=O)c2ccc3ccccc3c2)c1 | 6.2 µM | 1.9 µM | 3.5 µM | 14.7 µM | 0.4 µM | 1.5 µM | 9.6 µM | 10.5 µM
2 | COc1ccc(C(=O)C[n+]2ccn(C34CC5CC(CC(C5)C3)C4)c2)cc1 | 59.3 µM | 5.6 µM | 7.1 µM | 6.3 µM | 1.5 µM | 14.7 µM | 158 µM | 27.9 µM
3 | COc1ccc(CCn2cc[n+](CC(=O)c3ccc4ccccc4c3)c2)cc1OC | 50.2 µM | 11 µM | 77.2 µM | 75 µM | 169 µM | 54.2 µM | 85.4 µM | 34.4 µM
4 | CC(C)c1cccc(C(C)C)c1-n1cc[n+](CC(=O)c2ccc(Br)cc2)c1 | 18.4 µM | 11.3 µM | 9.2 µM | 4.6 µM | 2.8 µM | 3.8 µM | 35.3 µM | 10.9 µM
5 | CC(C)c1cccc(C(C)C)c1-n1cc[n+](CC(=O)c2ccc3c(c2)COC3)c1 | 36.9 µM | 25.5 µM | 11.6 µM | 5.1 µM | 12.1 µM | 4.5 µM | 59.6 µM | 44.3 µM
6 | Cc1cc(C)c(-n2cc[n+](CC(=O)c3ccc(Br)cc3)c2)c(C)c1 | 36.9 µM | 33.1 µM | 22.1 µM | 5.4 µM | 21.4 µM | 13.4 µM | 76.6 µM | 23.8 µM
7 | COc1ccc(C(=O)C[n+]2ccn(-c3ccc([N+](=O)[O-])cc3)c2)cc1 | 97.6 µM | 26.6 µM | 41.6 µM | 75.5 µM | 113 µM | 8.6 µM | 113 µM | > 200 µM
8 | COc1ccc(C(=O)C[n+]2ccn(CCc3ccc(OC)c(OC)c3)c2)cc1 | 33.4 µM | 37.4 µM | 62.3 µM | 188 µM | > 200 µM | 50.4 µM | > 200 µM | 62.3 µM
9 | O=C(C[n+]1ccn(C23CC4CC(CC(C4)C2)C3)c1)c1ccccc1 | 108 µM | 59.3 µM | 93.4 µM | 13.3 µM | > 200 µM | 39 µM | 198 µM | 108 µM
10 | CC(C)(C)n1cc[n+](CC(=O)c2ccccc2)c1 | > 200 µM | > 200 µM | > 200 µM | > 200 µM | > 200 µM | > 200 µM | > 200 µM | > 200 µM
11 | COc1ccc(C(=O)C[n+]2ccn(-c3ccc(CC(C)=O)cc3)c2)cc1 | 26.5 µM | 61.1 µM | 84.8 µM | 14.5 µM | 16.7 µM | 44.4 µM | 140 µM | 91.6 µM
12 | Cc1cc(C)c(-n2cc[n+](CC(=O)c3ccc4c(c3)COC4)c2)c(C)c1 | 23.5 µM | 31.5 µM | 12.3 µM | 18.2 µM | 70.1 µM | 6.1 µM | 85.3 µM | 33.5 µM
13 | Cc1cc(C)c(-n2cc[n+](CC(=O)C(C)(C)C)c2)c(C)c1 | > 200 µM | 192 µM | 132 µM | > 200 µM | > 200 µM | 113 µM | > 200 µM | 154 µM
14 | COc1ccc(C(=O)C[n+]2ccn(-c3c(C)cc(C)cc3C)c2)cc1 | 2.2 µM | 1.6 µM | 1.5 µM | 1.7 µM | 2.4 µM | 3.1 µM | 5 µM | 4.7 µM
15 | Cc1cc(C)c(-n2cc[n+](CC(=O)c3ccc4ccccc4c3)c2)c(C)c1 | 0.4 µM | 2.1 µM | 0.7 µM | 4.4 µM | 2.7 µM | 2.8 µM | 8.7 µM | 6.8 µM
16 | Cc1cc(C)c(-n2c[n+](CC(=O)c3ccc4ccccc4c3)c(C)c2C)c(C)c1 | 4.3 µM | 3.7 µM | 1.9 µM | 3.9 µM | 0.2 µM | 4.1 µM | 1.7 µM | 9.8 µM
17 | COc1ccc(C(=O)C[n+]2ccn(-c3c(C(C)C)cccc3C(C)C)c2)cc1 | 5.1 µM | 5 µM | 2.8 µM | 4.2 µM | 2.6 µM | 1.1 µM | 10 µM | 9.9 µM
18 | O=C(C[n+]1ccn(C23CC4CC(CC(C4)C2)C3)c1)c1ccc2ccccc2c1 | 0.8 µM | 4 µM | 0.8 µM | 6.4 µM | 3.4 µM | 4.2 µM | 12.8 µM | 7.7 µM
19 | CC(=O)Cc1ccc(-n2cc[n+](CC(=O)c3ccccc3)c2)cc1 | 53.5 µM | > 200 µM | > 200 µM | 7 µM | > 200 µM | 25.8 µM | > 200 µM | 53.4 µM
20 | Cc1cc(C)c(-n2cc[n+](CC(=O)c3ccccc3)c2)c(C)c1 | > 200 µM | 29.9 µM | 97.6 µM | 15.6 µM | > 200 µM | 31.3 µM | > 200 µM | 16.8 µM
21 | COc1ccc(C(=O)C[n+]2ccn(C(C)(C)C)c2)cc1 | 179 µM | > 200 µM | 117 µM | 66.2 µM | > 200 µM | > 200 µM | > 200 µM | > 200 µM
